Marks after values point to notes of the source that are not given here.
Experiments:
PTZ-induced seizures = experiment: PTZ model of generalised (acute) seizures; assay type: in vivo, rat; conditions: for Mortality / Latency to seizure onset / Maximum observed seizure severity (median): CBD and 7-OH CBD 100 mg/kg; for Mortality: FIG. 1B; for Anti-convulsant action in the PTZ model of acute seizure: 7-OH-CBDV 200 mg/kg, 7-OH-CBD 100 mg/kg IP; for Latency to seizure onset: FIG. 1D; for Potency compared with parent cannabinoid: metabolite vs parent (CBD, CBDV) at the same dose; for Maximum observed seizure severity (median): IP 30 min before PTZ 70 or 80 mg/kg IP, score scale 0-6, FIG. 1A
Procedure: Male Wistar rats (P24-29; 75-110 g) were used to assess the effects of the cannabinoids listed above on the PTZ model of generalised seizures. Animals were habituated to the test environment, cages, injection protocol and handling prior to experimentation. Animals were housed in a room at 21° C. on a 12 hour light: dark cycle (lights on 0900) in 50% humidity, with free access to food and water.
Five 6 L Perspex (RTM) tanks with lids were placed on a single bench with dividers between them. Closed-circuit television (CCTV) cameras were mounted onto the dividers to observe rat behaviour. Sony Topica CCD cameras (Bluecherry, USA) were linked via BNC cables to a low-noise PC via Brooktree digital capture cards (Bluecherry, USA). Zoneminder (http://www.zoneminder.com) software was used to monitor rats, start and end recordings and manage video files. In-house Linux (RTM) scripts were used to encode video files into a suitable format for further offline analysis
Animals were filmed for half an hour after last sign of seizure, and then returned to their cage.
Animals were observed during experimental procedures, but all analysis was performed offline on recorded video files using The Observer behavioural analysis software (Noldus, Netherlands). A seizure severity scoring system was used to determine the levels of seizure experienced by subjects (Table 1). All signs of seizure were detailed for all animals.
The latency (in seconds) from injection of PTZ to first myoclonic jerk (FMJ; score of 1), and to the animal attaining “forelimb clonus with tonic component and body twist” (score of 3.5) were recorded. […] Data are presented as the mean±S.E.M. within an experimental group.
This is given as the median value for each experimental group based on the scoring scale above.
The percentage of animals within an experimental group that died as a result of PTZ-induced seizures. A score of 6 (death) automatically denotes that the animal also experienced tonic-clonic seizures.
This is given as the mean±S.E.M. for each experimental group.
Differences in latencies and durations were assessed by one-way analysis of variance (ANOVA) with post-hoc Tukey's test. P≤0.05 was considered significant.

[1] = test system: seizures in epileptic patients; conditions: cited from earlier work
[2] = test system: seizures after pro-convulsant drugs or an electric current; conditions: mice, after pro-convulsant drugs or an electric current (Consroe et al., 1982); cited from earlier work
[3] = WO 01/95899; cited from earlier work
[4] = test system: Maximal electroshock seizures (MES); experiment: Maximal electroshock (MES) model of seizure; assay type: in vivo, mouse
Procedure: The vehicle used in this study was 2:1:17 (ethanol:Cremophor:0.9% w/v NaCl). […] This was made to a solution at the highest concentration; then dissolved in ethanol before combination with Cremophor and 0.9% NaCl in the proportion described above. The 7-OH-CBDV was administered intraperitoneally at a volume of 10 ml/kg body weight.
Animal Species/Strain: Mouse/ICR, Microbiological grade: SPF, Inc. Sex: male, Age (at time of testing): 5-7 weeks old, Number of animals: about 5 animals per group. Temperature: 23±2° C., Humidity: 60±10%, Light conditions: 7 AM to 7 PM for the light period, 7 PM to 7 AM for the dark period. Chow and water: Free access to CRF-1 (Oriental Yeast Co, Ltd) and tap water.
One day before each experiment, mice were weighed and randomized into several groups in each test. On the morning of the experiment day, body weight was measured in order to calculate the administration volume of each animal. Vehicle, 7-OH-CBDV or CBDV was interperitoneally administered 30 minutes before electric stimuli. […]
All statistical analyses were performed using SAS Software for Windows, Release 9.1. The difference of the number (hindlimb extension or deaths) in each group was assessed using two-tailed Fisher's exact test. […]

[5] = IP 30 min before PTZ, CBDV and 7-OH CBDV 200 mg/kg, n=11
[6] = CBDV and 7-OH CBDV 200 mg/kg, n=11

C=C(C)[C@@H]1CCC(C)=C[C@H]1c1c(O)cc(CCCCC)cc1O [CBD, Cannabidiol]
Mortality (PTZ-induced seizures; [5]): reduction in mortality | Patients becoming seizure free ([1]; 200 mg/day pure CBD, four adult patients (Mechoulam and Carlini, 1978)): two of the four patients became seizure free | Control of seizures ([1]; 200 mg/day pure CBD, open label, twelve institutionalized adult patients (Ames and Cridland, 1986)): ineffective in controlling seizures | Number of patients with marked reduction of seizures ([1]; eight adult patients with generalized epilepsy (Cunha et al., 1980)): 4 | Epileptic patients describing an improvement in their condition ([1]; eight epileptic patients (Carlini et al., 1981)): Seven out of the eight | Prevention of seizures [2]: able to prevent seizures

C=C(C)[C@@H]1CCC(CO)=C[C@H]1c1c(O)cc(CCCCC)cc1O [7-OH-CBD, 7-hydroxy-cannabidiol]
Anti-convulsant action in the PTZ model of acute seizure (PTZ-induced seizures): show anti-convulsant action | Mortality (PTZ-induced seizures; [5]): reduction in mortality | Latency to seizure onset (PTZ-induced seizures; [5]): significantly reduce the latency to onset of seizures | Latency to seizure onset (PTZ-induced seizures; IP 30 min before PTZ, CBDV and 7-OH CBDV 200 mg/kg, n=11, listed as 7-OH CBD): significantly reduced the latency to seizure onset | Potency compared with parent cannabinoid (PTZ-induced seizures): more potent than their parent cannabinoids | Efficacy in a model of inflammation [3]: found to be effective

C=C(C)[C@@H]1CCC(CO)=C[C@H]1c1c(O)cc(CCC)cc1O [7-OH-CBDV, 7-hydroxy-cannabidivarin]
Anti-convulsant action in the PTZ model of acute seizure (PTZ-induced seizures): show anti-convulsant action | Maximum observed seizure severity (median) (PTZ-induced seizures; [6]): 3 | Mortality (PTZ-induced seizures; [5]): significant effect on mortality | Potency compared with parent cannabinoid (PTZ-induced seizures): more potent than their parent cannabinoids | Anti-convulsant effects in the MES model ([4]; 150 and 200 mg/kg i.p.): anti-convulsant effects

C=C(C)[C@@H]1CCC(C)=C[C@H]1c1c(O)cc(CCC)cc1O [CBDV, Cannabidivarin]
Maximum observed seizure severity (median) (PTZ-induced seizures; [6]): significantly reduced seizure severity | Mortality (PTZ-induced seizures; [5]): significant effect on mortality | Incidence of tonic clonic seizures (PTZ-induced seizures; IP 30 min before PTZ, CBDV and 7-OH CBDV 200 mg/kg, n=11, FIG. 1C): significantly reduced | Percentage decrease in tonic clonic convulsions compared with vehicle ([4]; 200 mg/kg i.p., 30 minutes before electric stimuli, ICR mice): 82% ***

— patent publication US11793770B2, “7-OH-cannabidiol (7-OH-CBD) and/or 7-OH-cannabidivarin (7-OH-CBDV) for use in the treatment of epilepsy” (GW Research Limited, priority 2014, dated 2023)
